From US20250195530A1, “POLQ INHIBITORS” (ASTRAZENECA AB, priority 2022, published 2025)

Key:
DLD-1 cells = assay: Inhibition of proliferation, DLD-1 BRCA2 wt control (Cell Titre Glo 3D); type: cell-based; details: Homo sapiens, DLD-1, 168 h, DLD-1 BRCA2 wt cells, 7 days; read-out: POLQ PD Prolif Lumin DLD1 mean pIC50 (converted)
Method in brief: (§1)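 Read-out: CellTiter-Glo 3D luminescence, day 7 for wt DLD-1, day 12 for BRCA2−/−, about 8-9 population doublings each. Seeding 1,500 or 3,000 cells/mL respectively. Dose range 10 μM–0.51 nM, 3-fold, 10 points, with re-dosing on day 6. IC50 from curve fit.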

DLD-1 BRCA2−/− cells = assay: Homologous recombination synthetic lethal inhibition of proliferation, DLD-1 BRCA2-/- (Cell Titre Glo 3D); type: cell-based; details: Homo sapiens, DLD-1, 288 h, DLD-1 BRCA2−/− cells, 12 days; read-out: POLQ PD Prolif Lumin BRCA2 −/− mean pIC50 (converted)
Method in brief: as §1

Structure (SMILES) | IC50 (DLD-1 cells) [nM] | IC50 (DLD-1 BRCA2−/− cells) [nM]
Cc1cc(OCCN2CCNCC2)ncc1-c1nc2c(OC3(C)CC3)ncnc2n1Cc1cccc(Cl)c1 [Example J6, 9-(3-chlorobenzyl)-8-(4-methyl-6-(2-(piperazin-1-yl)ethoxy)pyridin-3-yl)-6-(1-methylcyclopropoxy)-9H-purine] | > 10000 | 631
CC1(Oc2ncnc3c2nc(-c2ccc(OCCN4CCNCC4)cc2Cl)n3Cc2ccccn2)CCC1 [Example J7, 8-(2-chloro-4-(2-(piperazin-1-yl)ethoxy)phenyl)-6-(1-methylcyclobutoxy)-9-(pyridin-2-ylmethyl)-9H-purine] | 7940 | 316
CC1(Oc2ncnc3c2nc(-c2ccc(OCCN4CCNCC4)cc2Cl)n3CCc2cccnc2)CC1 [Example J8, 8-(2-chloro-4-(2-(piperazin-1-yl)ethoxy)phenyl)-6-(1-methylcyclopropoxy)-9-(2-(pyridin-3-yl)ethyl)-9H-purine] | 7940 | > 10000
C[C@H](Cn1c(-c2ccc(OCCN3CCNCC3)cc2Cl)nc2c(OC3(C)CC3)ncnc21)c1ccccc1 [Example J9, (S)-8-(2-chloro-4-(2-(piperazin-1-yl)ethoxy)phenyl)-6-(1-methylcyclopropoxy)-9-(2-phenylpropyl)-9H-purine] | 5010 | 2510
C[C@@H](Cn1c(-c2ccc(OCCN3CCNCC3)cc2Cl)nc2c(OC3(C)CC3)ncnc21)c1ccccc1 [Example J10, (R)-8-(2-chloro-4-(2-(piperazin-1-yl)ethoxy)phenyl)-6-(1-methylcyclopropoxy)-9-(2-phenylpropyl)-9H-purine] | 3980 | 631
CC1(Oc2ncnc3c2nc(-c2ccc(OCCN4CCNCC4)cc2Cl)n3CCc2ccccc2)CC1 [Example J12, 8-(2-chloro-4-(2-(piperazin-1-yl)ethoxy)phenyl)-6-(1-methylcyclopropoxy)-9-phenethyl-9H-purine] | > 10000 | 501
CC1(Oc2ncnc3c2nc(-c2ccc(OCCN4CCNCC4)cc2Cl)n3Cc2cccc(Cl)c2)CC1 [Example J13, 8-(2-chloro-4-(2-(piperazin-1-yl)ethoxy)phenyl)-9-(3-chlorobenzyl)-6-(1-methylcyclopropoxy)-9H-purine] | 3160 | 50.1
CN1CCN(CCOc2ccc(-c3nc4c(OC5(C)CC5)ncnc4n3Cc3ccncc3)c(Cl)c2)CC1 [Example K1, 8-(2-chloro-4-(2-(4-methylpiperazin-1-yl)ethoxy)phenyl)-6-(1-methylcyclopropoxy)-9-(pyridin-4-ylmethyl)-9H-purine] | > 10000 | 1000
CC1(Oc2ncnc3c2nc(-c2ccc(OCCN4CCNCC4)cc2Cl)n3Cc2cscn2)CC1 [Example K2, 4-((8-(2-chloro-4-(2-(piperazin-1-yl)ethoxy)phenyl)-6-(1-methylcyclopropoxy)-9H-purin-9-yl)methyl)thiazole] | 6310 | 2000
CC1(Oc2ncnc3c2nc(-c2ccc(OCCN4CCNCC4)cc2Cl)n3Cc2ccc(Cl)cn2)CC1 [Example K3, 8-(2-chloro-4-(2-(piperazin-1-yl)ethoxy)phenyl)-9-((5-chloropyridin-2-yl)methyl)-6-(1-methylcyclopropoxy)-9H-purine] | > 10000 | 1260
CC1(Oc2ncnc3c2nc(-c2ccc(OCCN4CCNCC4)cc2Cl)n3Cc2nccs2)CC1 [Example K4, 2-((8-(2-chloro-4-(2-(piperazin-1-yl)ethoxy)phenyl)-6-(1-methylcyclopropoxy)-9H-purin-9-yl)methyl)thiazole] | > 10000 | 3980
CC1(Oc2ncnc3c2nc(-c2ccc(OCCN4CCNCC4)cc2Cl)n3Cc2ncccc2Cl)CC1 [Example K5, 8-(2-chloro-4-(2-(piperazin-1-yl)ethoxy)phenyl)-9-((3-chloropyridin-2-yl)methyl)-6-(1-methylcyclopropoxy)-9H-purine] | > 10000 | 2510
Cc1nc(Cn2c(-c3ccc(OCCN4CCNCC4)cc3Cl)nc3c(OC4(C)CC4)ncnc32)cs1 [Example K6, 4-((8-(2-chloro-4-(2-(piperazin-1-yl)ethoxy)phenyl)-6-(1-methylcyclopropoxy)-9H-purin-9-yl)methyl)-2-methylthiazole] | > 10000 | 3980
Cc1cccc(Cn2c(-c3ccc(OCCN4CCNCC4)cc3Cl)nc3c(OC4(C)CC4)ncnc32)n1 [Example K7, 8-(2-chloro-4-(2-(piperazin-1-yl)ethoxy)phenyl)-6-(1-methylcyclopropoxy)-9-((6-methylpyridin-2-yl)methyl)-9H-purine] | > 10000 | 1260
CC1(Oc2ncnc3c2nc(-c2ccc(OCCN4CCNCC4)cc2Cl)n3Cc2cc(C(F)(F)F)ccn2)CC1 [Example K8, 8-(2-chloro-4-(2-(piperazin-1-yl)ethoxy)phenyl)-6-(1-methylcyclopropoxy)-9-((4-(trifluoromethyl)pyridin-2-yl)methyl)-9H-purine] | 7940 | 398
CC1(Oc2ncnc3c2nc(-c2ccc(OCCN4CCNCC4)cc2Cl)n3Cc2cccc(C#N)n2)CC1 [Example K9, 6-((8-(2-chloro-4-(2-(piperazin-1-yl)ethoxy)phenyl)-6-(1-methylcyclopropoxy)-9H-purin-9-yl)methyl)picolinonitrile] | > 10000 | 1580
COc1cccc(Cn2c(-c3ccc(OCCN4CCNCC4)cc3Cl)nc3c(OC4(C)CC4)ncnc32)n1 [Example K10, 8-(2-chloro-4-(2-(piperazin-1-yl)ethoxy)phenyl)-9-((6-methoxypyridin-2-yl)methyl)-6-(1-methylcyclopropoxy)-9H-purine] | > 10000 | 1580
CC1(Oc2ncnc3c2nc(-c2ccc(OCCN4CCNCC4)cc2Cl)n3Cc2ncccc2C#N)CC1 [Example K11, 2-((8-(2-chloro-4-(2-(piperazin-1-yl)ethoxy)phenyl)-6-(1-methylcyclopropoxy)-9H-purin-9-yl)methyl)nicotinonitrile] | > 10000 | 2000
Cc1scnc1Cn1c(-c2ccc(OCCN3CCNCC3)cc2Cl)nc2c(OC3(C)CC3)ncnc21 [Example K12, 4-((8-(2-chloro-4-(2-(piperazin-1-yl)ethoxy)phenyl)-6-(1-methylcyclopropoxy)-9H-purin-9-yl)methyl)-5-methylthiazole] | > 10000 | 1580
Cc1ccnc(Cn2c(-c3ccc(OCCN4CCNCC4)cc3Cl)nc3c(OC4(C)CC4)ncnc32)c1 [Example L2, 8-(2-chloro-4-(2-(piperazin-1-yl)ethoxy)phenyl)-6-(1-methylcyclopropoxy)-9-((4-methylpyridin-2-yl)methyl)-9H-purine] | > 10000 | 398
Cc1cnc(Cn2c(-c3ccc(OCCN4CCNCC4)cc3Cl)nc3c(OC4(C)CC4)ncnc32)s1 [Example L3, 2-((8-(2-chloro-4-(2-(piperazin-1-yl)ethoxy)phenyl)-6-(1-methylcyclopropoxy)-9H-purin-9-yl)methyl)-5-methylthiazole] | > 10000 | 398
CC1(Oc2ncnc3c2nc(-c2ccc(OCCN4CCNCC4)cc2Cl)n3Cc2cc(C#N)ccn2)CC1 [Example L4, 2-((8-(2-chloro-4-(2-(piperazin-1-yl)ethoxy)phenyl)-6-(1-methylcyclopropoxy)-9H-purin-9-yl)methyl)isonicotinonitrile] | > 10000 | 1000
COc1ccnc(Cn2c(-c3ccc(OCCN4CCNCC4)cc3Cl)nc3c(OC4(C)CC4)ncnc32)c1 [Example L5, 8-(2-chloro-4-(2-(piperazin-1-yl)ethoxy)phenyl)-9-((4-methoxypyridin-2-yl)methyl)-6-(1-methylcyclopropoxy)-9H-purine] | > 10000 | 1580
CC1(Oc2ncnc3c2nc(-c2ccc(OCCN4CCNCC4)cc2Cl)n3Cc2ncc(Cl)s2)CC1 [Example L6, 5-chloro-2-((8-(2-chloro-4-(2-(piperazin-1-yl)ethoxy)phenyl)-6-(1-methylcyclopropoxy)-9H-purin-9-yl)methyl)thiazole] | > 10000 | 398
CC1(Oc2ncnc3c2nc(-c2ccc(OCCN4CCNCC4)cc2Cl)n3Cc2csc(Cl)n2)CC1 [Example L7, 2-chloro-4-((8-(2-chloro-4-(2-(piperazin-1-yl)ethoxy)phenyl)-6-(1-methylcyclopropoxy)-9H-purin-9-yl)methyl)thiazole] | > 10000 | 1580
Cc1ccc(Cn2c(-c3ccc(OCCN4CCNCC4)cc3Cl)nc3c(OC4(C)CC4)ncnc32)nc1 [Example L8, 8-(2-chloro-4-(2-(piperazin-1-yl)ethoxy)phenyl)-6-(1-methylcyclopropoxy)-9-((5-methylpyridin-2-yl)methyl)-9H-purine] | > 10000 | 2000
Cc1cccnc1Cn1c(-c2ccc(OCCN3CCNCC3)cc2Cl)nc2c(OC3(C)CC3)ncnc21 [Example L9, 8-(2-chloro-4-(2-(piperazin-1-yl)ethoxy)phenyl)-6-(1-methylcyclopropoxy)-9-((3-methylpyridin-2-yl)methyl)-9H-purine] | > 10000 | 3160
COc1cccnc1Cn1c(-c2ccc(OCCN3CCNCC3)cc2Cl)nc2c(OC3(C)CC3)ncnc21 [Example L10, 8-(2-chloro-4-(2-(piperazin-1-yl)ethoxy)phenyl)-9-((3-methoxypyridin-2-yl)methyl)-6-(1-methylcyclopropoxy)-9H-purine] | > 10000 | 3160
CC1(Oc2ncnc3c2nc(-c2ccc(N4CC(N)C4)cc2Cl)n3Cc2ccccc2)CC1 [Example M1, 1-(4-(9-benzyl-6-(1-methylcyclopropoxy)-9H-purin-8-yl)-3-chlorophenyl)azetidin-3-amine] | > 10000 | 501
